Article PMC13170396 (Journal of controlled release : official journal of the …, 2025)

Legend:
[1] = cited from earlier work; for clearance / elimination half-life t1/2 / volume of distribution: murine models
[2] = tested on: HCT116 and UISO-Mel29 cells; experiment: Cell proliferation assay; assay type: cell-based, human
[3] = tested on: p53-positive solid tumors; conditions: clinical; cited from earlier work
[4] = cited from earlier work
[5] = tested on: HCT116, UISO-Mel29, CCD33Co and fibroblasts; experiment: Confocal imaging of cell penetration; assay type: cell-based, human; conditions: AF-p28 20 μM or AF-Arg8 5 μM, 2 h, 37 °C, confocal microscopy, Fig. 2A

Molecule	primary route of excretion [1]	clearance [1] [mL/min/kg]	elimination half-life t1/2 [1] [h]	volume of distribution [1] [L/kg]	effect of CQ on the anti-proliferative effect of p28 ([2]; CQ 10 μM with varying concentrations of p28, 24 h, Fig. 6A, B)	cytotoxic activity in cancer cells ([2]; Fig. S4)	adverse effects, toxicity, immunogenicity in humans [3]	water solubility [4]	cell penetration, cancer cells compared to normal cells [5]
CCN(CC)CCCC(C)Nc1ccnc2cc(Cl)ccc12 (stereo not shown) [CQ, chloroquine]	hepatic clearance	165	46.6	667	significantly enhanced the effect of p28	dose-dependent cytotoxic activity	–	–	–
CSCC[C@H](NC(=O)CNC(=O)[C@H](CC(=O)O)NC(=O)[C@@H](NC(=O)[C@@H](NC(=O)[C@@H](NC(=O)CNC(=O)[C@H](CCC(N)=O)NC(=O)[C@H](CCSC)NC(=O)[C@H](CC(=O)O)NC(=O)[C@H](C)NC(=O)[C@H](C)NC(=O)[C@@H](NC(=O)[C@H](CO)NC(=O)[C@@H](N)CC(C)C)[C@@H](C)O)C(C)C)C(C)C)[C@@H](C)O)C(=O)N[C@@H](C)C(=O)N[C@@H](CO)C(=O)NCC(=O)N[C@@H](CC(C)C)C(=O)N[C@@H](CC(=O)O)C(=O)N[C@@H](CCCCN)C(=O)N[C@@H](CC(=O)O)C(=O)N[C@@H](Cc1ccc(O)cc1)C(=O)N[C@@H](CC(C)C)C(=O)N[C@@H](CCCCN)C(=O)N1CCC[C@H]1C(=O)N[C@@H](CC(=O)O)C(=O)N[C@@H](CC(=O)O)C(=O)O [p28]	renal clearance	36.7	0.06	0.29	–	–	no significant adverse effects, toxicity or immunogenicity	highly water soluble	–
octaarginine [Arg8]	–	–	–	–	–	–	–	–	penetrated both cancer and normal cells
